How the values were obtained:
mice = test: In vivo delivery of FLuc-mRNA lipid nanoparticle preparations in mice (IVIS imaging); parameters: In vivo IVIS / In vivo IVIS (liver) / In vivo IVIS (spleen): unit not given here
Experimental: 7. In Vivo Delivery of the Nucleic Acid Lipid Nanoparticle Preparations in Mice After the preparation was completed, the preparation was injected intramuscularly (mice rectus femoris muscle of the thigh) or intravenously (mice tail vein), with approximately 75 μL per mouse, for a total of 3 mice. After a certain time of injection, in vivo imaging (PerkinElmer, IVIS Lumina III) was performed. 10-15 minutes before imaging, 200 μL of 15 mg/mL D-Luciferin working solution was injected intraperitoneally, and the imaging analysis was performed using an in vivo imager.

[1] = Particle size and PDI by dynamic light scattering; type: physicochemical; conditions: Table 2; for Particle size (nm): LNP formulation with mRNA; for PDI: polydispersity value
Experimental: The 7.5 μL nucleic acid lipid nanoparticle solution (containing approximately 0.04 mg/mL mRNA) was taken and added with 200 μL ultrapure water, mixed by gentle blowing using a pipette tip, and the particle size of the nanopreparation was detected by dynamic lightscattering (DLS) using a Malvern Dynamic Light Scattering Instrument (Malvern Instruments Ltd., ZEN3700, UK). 27.5 μL nucleic acid lipid nanoparticle solution (containing about 0.04 mg/mL mRNA) was taken and added with 200 μL ultrapure water. A pipette tip was used to gently blow the sample and mix well. The particle size of the nanopreparation was detected by Malvern Dynamic Light Scattering Instrument (Malvern Instruments Ltd., ZEN3700, UK). After the detection, the sample was recovered to an EP tube, and 600 μL of ultrapure water was added, gently blown with a pipette tip, and the potential of the nanopreparation was measured by a Malvern particle size meter.

[2] = Table 2, IV, whole body scan, molar ratio DMG-PEG2000:DSPC:Chol:Lipid and N/P
[3] = molar ratio 1.09:8.66:30.25:60.00, N/P 21
[4] = molar ratio 1.40:11.15:38.95:48.50, N/P 21
[5] = molar ratio 1.09:8.66:30.25:60.00, N/P 30
[6] = molar ratio 1.40:11.15:38.95:48.50, N/P 30
[7] = molar ratio 1.40:11.15:38.95:48.50, N/P 24
[8] = molar ratio 1.63:12.99:45.38:40.00, N/P 24
[9] = molar ratio 1.09:8.66:30.25:60.00, N/P 50
[10] = molar ratio 1.40:11.15:38.95:48.50, N/P 50
[11] = molar ratio 0.95:7.58:26.47:65.00, N/P 30
[12] = molar ratio 1.09:8.66:30.25:60.00, N/P 20
[13] = molar ratio 1.40:11.15:38.95:48.50, N/P 10

CCCCCCCCCCNC(=O)C(O)CN1CCN(CCN(CC(O)C(=O)NCCCCCCCCCC)CC(O)C(=O)NCCCCCCCCCC)CC1 (centres unmarked) [Compound L0180]
In vivo IVIS (mice; Table 2, IM, whole body scan): 1.10 × 10^7 | In vivo IVIS (mice; [2]): 3.15 × 10^6 | Particle size (nm) [1, 3]: 84.26 ± 0.81 nm | Particle size (nm) [1, 4]: 86.34 ± 1.35 nm | PDI [1, 3]: 0.13 ± 0.01 | PDI [1, 4]: 0.18 ± 0.01

CCCCCCCCCCCCNC(=O)C(O)CN1CCN(CCN(CC(O)C(=O)NCCCCCCCCCCCC)CC(O)C(=O)NCCCCCCCCCCCC)CC1 (centres unmarked) [Compound L0181]
In vivo IVIS (mice; Table 2, IM, whole body scan): 3.37 × 10^6 | Particle size (nm) [1]: 71.39 ± 0.26 nm | PDI [1]: 0.16 ± 0.02

CCCCCCCCCCOC(=O)C(O)CN1CCN(CCN(CC(O)C(=O)OCCCCCCCCCC)CC(O)C(=O)OCCCCCCCCCC)CC1 (centres unmarked) [Compound L0182]
In vivo IVIS (mice; Table 2, IM, whole body scan): 3.25 × 10^7 | In vivo IVIS (mice; [2]): 4.99 × 10^6 | Particle size (nm) [1, 5]: 89.38 ± 0.09 nm | Particle size (nm) [1, 6]: 83.26 ± 0.68 nm | PDI [1, 5]: 0.16 ± 0.01 | PDI [1, 6]: 0.14 ± 0.01

CCCCCCCCCCCCOC(=O)C(O)CN1CCN(CCN(CC(O)C(=O)OCCCCCCCCCCCC)CC(O)C(=O)OCCCCCCCCCCCC)CC1 (centres unmarked) [Compound L0183]
In vivo IVIS (mice; Table 2, IM, whole body scan): 2.37 × 10^7 | In vivo IVIS (mice; [2]): 5.98 × 10^7 | Particle size (nm) [1, 7]: 75.73 ± 0.33 nm | Particle size (nm) [1, 8]: 94.49 ± 1.06 nm | PDI [1, 7]: 0.14 ± 0.01 | PDI [1, 8]: 0.16 ± 0.01

CCCCCCOCOCCCCCCOC(=O)C(O)CN1CCN(CCN(CC(O)C(=O)OCCCCCCOCOCCCCCC)CC(O)C(=O)OCCCCCCOCOCCCCCC)CC1 (centres unmarked) [Compound L0184]
In vivo IVIS (mice; Table 2, IM, whole body scan): 4.88 × 10^6 | In vivo IVIS (mice; [2]): 1.17 × 10^8 | Particle size (nm) [1, 9]: 128.20 ± 0.95 nm | Particle size (nm) [1, 10]: 119.60 ± 0.40 nm | PDI [1, 9]: 0.09 ± 0.01 | PDI [1, 10]: 0.06 ± 0.00

CCCCCCCCCCSSCCOC(=O)C(O)CN1CCN(CCN(CC(O)C(=O)OCCSSCCCCCCCCCC)CC(O)C(=O)OCCSSCCCCCCCCCC)CC1 (centres unmarked) [Compound L0185]
In vivo IVIS (mice; Table 2, IM, whole body scan): 2.52 × 10^7 | In vivo IVIS (mice; [2]): 2.72 × 10^6 | Particle size (nm) [1, 11]: 94.35 ± 0.52 nm | Particle size (nm) [1, 6]: 84.46 ± 1.39 nm | PDI [1, 11]: 0.13 ± 0.02 | PDI [1, 6]: 0.20 ± 0.00

CCCCCCCCC(CCCCCC)C(=O)OCCCCCCOC(=O)C(O)CN1CCN(CCN(CC(O)C(=O)OCCCCCCOC(=O)C(CCCCCC)CCCCCCCC)CC(O)C(=O)OCCCCCCOC(=O)C(CCCCCC)CCCCCCCC)CC1 (centres unmarked) [Compound L0188]
In vivo IVIS (mice; Table 2, IM, whole body scan): 1.87 × 10^7 | In vivo IVIS (liver) (mice; Table 2, IV, liver): 4.17 × 10^7 | In vivo IVIS (spleen) (mice; Table 2, IV, spleen): 4.65 × 10^7 | In vivo IVIS (mice; [2]): 1.61 × 10^8 | Particle size (nm) [1]: 97.72 ± 1.19 nm | PDI [1]: 0.22 ± 0.02

CCCCCCCCCCNC(=O)C(O)CN(CCCN1CCN(CCCN(CC(O)C(=O)NCCCCCCCCCC)CC(O)C(=O)NCCCCCCCCCC)CC1)CC(O)C(=O)NCCCCCCCCCC (centres unmarked) [Compound L0189]
In vivo IVIS (mice; Table 2, IM, whole body scan): 2.16 × 10^6 | In vivo IVIS (mice; [2]): 3.12 × 10^7 | Particle size (nm) [1, 12]: 106.80 ± 0.85 nm | Particle size (nm) [1, 13]: 85.92 ± 0.69 nm | PDI [1, 12]: 0.06 ± 0.04 | PDI [1, 13]: 0.07 ± 0.02

CCCCCCCCCCCCNC(=O)C(O)CN(CCCN1CCN(CCCN(CC(O)C(=O)NCCCCCCCCCCCC)CC(O)C(=O)NCCCCCCCCCCCC)CC1)CC(O)C(=O)NCCCCCCCCCCCC (centres unmarked) [Compound L0190]
In vivo IVIS (mice; Table 2, IM, whole body scan): 1.19 × 10^6 | Particle size (nm) [1]: 121.87 ± 2.71 nm | PDI [1]: 0.20 ± 0.01

CCCCCCCCCCCCNC(=O)C(O)CN(CC(=O)NCCCN1CCN(CCCNC(=O)CN(CC(O)C(=O)NCCCCCCCCCCCC)CC(O)C(=O)NCCCCCCCCCCCC)CC1)CC(O)C(=O)NCCCCCCCCCCCC (centres unmarked) [Compound L0193]
In vivo IVIS (mice; Table 2, IM, whole body scan): 2.43 × 10^5 | In vivo IVIS (mice; [2]): 4.33 × 10^5 | Particle size (nm) [1]: 93.86 ± 0.59 nm | PDI [1]: 0.11 ± 0.02

CCCCCCCCCCCCOC(=O)CCN(CCCN1CCN(CCCN(CCC(=O)OCCCCCCCCCCCC)CCC(=O)OCCCCCCCCCCCC)CC1)CCC(=O)OCCCCCCCCCCCC [L0191-Control, reference compound]
delivery efficiency, times lower than the hydroxy compound (L0191 or L0199) (mice; IM administration): ~20 times | delivery efficiency, times lower than the hydroxy compound (L0191 or L0199) (mice; IV administration): about 420 times | In vivo IVIS (mice; Table 4, IM): 1.07 × 10^6 | In vivo IVIS (mice; Table 4, IV): 2.30 × 10^6
